Laboratory results taken from patent US20170009242A1, “CRISPR-Mediated Genome Engineering for Protein Depletion” (Whitehead Institute for Biomedical Research, priority 2015, published 2017).

Tested on: CENP-I-AID-EGFP fusion protein
Assay: Auxin-induced depletion of endogenously tagged CENP-I-AID-EGFP, immunofluorescence microscopy
Assay type: cell-based
Settings: osTIR1-expressing DLD-1 cells, interphase cell; IAA 500 μM for 12 hr; immunofluorescence (FIG. 3)
Protocol: DLD-1 cell lines were cultured as described previously in Dulbecco's Modified Eagle Medium (DMEM) supplemented with 10% fetal bovine serum (FBS), penicillin/streptomycin and 2 mM L-glutamine. Indole-3-acetic acid (IAA) (15148; Sigma) was dissolved in water and added to cells at a concentration of 500 μM for 12 hr. osTIR1-9Myc was cloned into the pBabe-puro vector and introduced into cell lines using retroviral delivery. Stable integrants were selected in puromycin and single clones isolated using single cell sorting. Western Blot analysis using an antibody raised against the Myc tag was used to determine the expression level of TIR1 protein in different clones. Rapidly growing clones with the high levels of osTIR1 expression were selected for further use. 2.5 ug each of pX330-GFP and the donor plasmid were co-transfected into osTIR1-9Myc expressing cells using Lipofectamine 2000 (Invitrogen) and OptiMEM according to the manufacturer's instructions. 24 h after transfection cells, were transferred to a 20 cm dish, and 48 h later cells were selected in […] G418 (Gibco) and 2 ug/ml puromycin to maintain the osTIR1. Colonies were harvested after 2 weeks and FACS sorted to isolate individual cells. […]

## O=C(O)Cc1c[nH]c2ccccc12 [IAA, Indole-3-acetic acid]
  CENP-I-AID-EGFP fusion protein at kinetochores upon addition of IAA: no longer observed
  associated proteins such as CENP-T at kinetochores upon addition of IAA: lost from kinetochores
